Assay results published in patent publication US3956292A, “7-(α-FUROYLUREIDOARYL AND CYCLOHEXADIENYLACETAMIDO) CEPHALOSPORIN ANTIBIOTICS” (Eli Lilly and Company, priority 1975, dated 1976).
Converted amounts (≈) assume the structure as drawn. Read-outs that look alike come from different tables or passages of the source.

Columns and labels:
Format in all cases: cell-based
Aerobacter aerogenes = test: Antibiotic activity in vitro, MIC by gradient plate method; conditions: Klebsiella aerogenes
Protocol: (§1) The antibiotic activity of the compounds of the invention is illustrated by the in vitro data presented in the following Tables I and II for two of the preferred compounds. In the tables, the minimum inhibitory concentrations (MIC) of the test compounds versus the indicated gram-positive and gram-negative microorganisms is presented. The MIC values were determined by the gradient plate method which is essentially the method described by Bryson and Szybalski, Science, 116, 45-46 (1952).
(§2) Table II lists the inhibitory activity in terms of MIC values against clinical isolates of penicillin resistant Staphylococcus microorganisms both in the presence of and in the absence of serum.

Escherichia coli = test: as above
Protocol: as §1, §2

Klebsiella pneumoniae = test: as above
Protocol: as §1, §2

Pseudomonas aeruginosa = test: as above
Protocol: as §1, §2

Salmonella heidelberg = test: as above; conditions: Salmonella enterica
Protocol: as §1, §2

Serratia marcescens = test: as above
Protocol: as §1, §2

Shigella sp. = test: as above
Protocol: as §1, §2

[1] = tested on: Resistant Staphylococcus V-32; test: Antibiotic activity vs. penicillin resistant Staphylococcus clinical isolates, MIC by gradient plate method
Protocol: as §1, §2

[2] = tested on: Resistant Staphylococcus V-41; test: as above
Protocol: as §1, §2

[3] = tested on: Resistant Staphylococcus V-84; test: as above
Protocol: as §1, §2

[4] = tested on: Resistant Staphylococcus X-400; test: as above
Protocol: as §1, §2

[5] = tested on: Resistant Staphylococcus X1.1; test: as above
Protocol: as §1, §2

[6] = Staphylococcus, absence of serum (NS), read-out: MIC

Row | Compound | MIC (Aerobacter aerogenes) [µg/mL] | MIC (Escherichia coli) [µg/mL] | MIC (Klebsiella pneumoniae) [µg/mL] | MIC (Pseudomonas aeruginosa) [µg/mL] | MIC (Salmonella heidelberg) [µg/mL] | MIC (Serratia marcescens) [µg/mL] | MIC (Shigella sp.) [µg/mL] | MIC ([1]; absence of serum (NS)) [µg/mL] | MIC ([1]; presence of serum (S)) [µg/mL] | MIC ([2]; absence of serum (NS)) [µg/mL] | MIC ([2]; presence of serum (S)) [µg/mL] | MIC ([3]; absence of serum (NS)) [µg/mL] | MIC ([3]; presence of serum (S)) [µg/mL] | MIC [4, 6] [µg/mL] | MIC ([4]; presence of serum (S)) [µg/mL] | MIC ([5]; absence of serum (NS)) [µg/mL] | MIC ([5]; presence of serum (S)) [µg/mL]
1 | Cn1nnnc1SCC1=C(C(=O)O)N2C(=O)C(NC(=O)C(NC(=O)NC(=O)c3ccco3)c3ccc(O)cc3)C2SC1 (stereo not drawn) [Test Compound B, 7-[α-(3-α-furoyl-1-ureido)-α-(4-hydroxyphenyl)acetamido]-3-(1-methyl-1H-tetrazole-5-ylthiomethyl)-3-cephem-4-carboxylic acid] | 6.5 (≈ 10.6 µM) | 5.8 (≈ 9.44 µM) | 6.3 (≈ 10.3 µM) | 10.7 (≈ 17.4 µM) | 5.8 (≈ 9.44 µM) | 14.5 (≈ 23.6 µM) | 5.5 (≈ 8.95 µM) | 13.7 (≈ 22.3 µM) | > 20 | 5 (≈ 8.14 µM) | > 20 | 1 (≈ 1.63 µM) | 1 | > 20 | > 20 | 1 (≈ 1.63 µM) | 1
2 | Cn1nnnc1SCC1=C(C(=O)O)N2C(=O)C(NC(=O)C(NC(=O)NC(=O)c3ccco3)c3ccccc3)C2SC1 (stereo not drawn) [Test Compound A, 7-[α-(3-α-furoyl-1-ureido)-α-phenylacetamido]-3-(1-methyl-1H-tetrazole-5-ylthiomethyl)-3-cephem-4-carboxylic acid] | 7.5 (≈ 12.5 µM) | 7 (≈ 11.7 µM) | 5 (≈ 8.35 µM) | 12.3 (≈ 20.5 µM) | 6.8 (≈ 11.4 µM) | 19.5 (≈ 32.6 µM) | 5.5 (≈ 9.19 µM) | 4.5 (≈ 7.52 µM) | 8 | 3 (≈ 5.01 µM) | 8 | 0.4 (≈ 0.668 µM) | 1 | > 20 | > 20 | 0.4 (≈ 0.668 µM) | 1
